Measurements published in patent US12421249B2, “Inhibitors of APOL1 and methods of using same” (Vertex Pharmaceuticals Incorporated, priority 2020, dated 2025).
pIC50: −log10 of the molar value.

Tests used:
Format in all cases: cell-based
APOL1 G1 [1] = target: T1, APOL1 G1 (Homo sapiens, UniProt O14791, I384M/S342G); experiment: MultiTox-Fluor Multiplex Cytotoxicity Assay in tet-inducible APOL1 G1 T-REx-HEK293 cells (clone G1 DC3.25); design: expressed in transfected cells; host or cells: T-REx HEK293, pAAVS1-Puro-APOL1 G1, clone G1 DC3.25; conditions: Multi-Tox Assay, APOL1 variant cell line not given; for Emax: read-out: Multi-Tox Assay Max Activity (%); for pIC50: IP50 = IC50 for cell proliferation
T1 sequence (O14791 28-398 S342G/I384M): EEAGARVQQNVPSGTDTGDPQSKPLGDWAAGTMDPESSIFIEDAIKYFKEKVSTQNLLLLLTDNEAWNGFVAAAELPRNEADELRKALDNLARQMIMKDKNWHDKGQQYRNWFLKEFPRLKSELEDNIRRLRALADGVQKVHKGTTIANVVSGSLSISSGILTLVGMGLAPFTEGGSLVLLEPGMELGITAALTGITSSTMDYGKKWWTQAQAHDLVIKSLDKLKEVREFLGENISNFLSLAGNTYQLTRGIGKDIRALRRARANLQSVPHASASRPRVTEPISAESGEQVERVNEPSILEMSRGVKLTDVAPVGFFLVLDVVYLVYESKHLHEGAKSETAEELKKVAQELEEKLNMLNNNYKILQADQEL
Experimental: The MultiTox-Fluor Multiplex Cytotoxicity Assay is a single-reagent-addition, homogeneous, fluorescence assay that measures the number of live and dead cells simultaneously in culture wells. The assay measures cell viability and cytotoxicity by detecting two distinct protease activities. The live-cell protease activity is restricted to intact viable cells and is measured using a fluorogenic, cell-permeant peptide glycyl-phenylalanylamino fluorocoumarin (GF-AFC) substrate. The substrate enters intact cells, where it is cleaved to generate a fluorescent signal proportional to the number of living cells. […] A second, cell-impermeant, fluorogenic peptide substrate (bis-AAF-R110 Substrate) is used to measure dead-cell protease that has been released from cells that have lost membrane integrity. A ratio of dead to live cells is used to normalize data.
Briefly, the tet-inducible transgenic APOL1 T-REx-HEK293 cell lines were incubated with 50 ng/mL tet to induce APOL1 in the presence of 3-(2-(4-fluorophenyl)-1H-indol-3-yl)-N-((3S,4R)-4-hydroxy-2-oxopyrrolidin-3-yl)propenamide at […], 0.0045, 0.0015, 0.0005 μM in duplicate for 24 hours in a humidified 37° C. incubator. The MultiTox reagent was added to each well and placed back in the incubator for an additional 30 minutes. The plate was read on the EnVision plate reader. A ratio of dead to live cells was used to normalize, and data was imported, analyzed and fit using Genedata Screener (Basel, Switzerland) software. Data was normalized using percent of control, no tet (100% viability), and 50 ng/mL tet treated (0% viability), and fit using Smart Fit. The reagents, methods, and complete protocol for the MultiTox assay are described below.
Human embryonic kidney (HEK293) cell lines containing a tet-inducible expression system (T-REx™; Invitrogen, Carlsbad, CA) and Adeno-associated virus site 1 pAAVS1-Puro-APOL1 G0 or pAAVS1-Puro-APOL1 G1 or pAAVS1-Puro-APOL1 G2 Clones G0 DC2.13, G1 DC3.25, and G2 DC4.44 were grown in a T-225 flask at ˜90% confluency in cell growth media (DMEM, 10% Tet-free FBS, 2 mM L-glutamine, 100 Units/mL penicillin-streptomycin, 5 μg/mL blasticidin S HCl, 1 μg/mL puromycin dihydrochloride). Cells were washed with DPBS and then trypsinized to dissociate from the flask. Media was used to quench the trypsin, cells were then pelleted at 200 g and resuspended in fresh cell assay media (DMEM, 2% Tet-free FBS, 2 mM L-glutamine, 100 Units/mL penicillin-streptomycin). Cells were counted and diluted to 1.17×10^6 cells/mL. 20 μL of cells (23,400/well) were dispensed to every well of a 384-well Poly-D-Lysine coated plate using the Multidrop dispenser. The plates were then incubated at room temperature for one hour.
Tetracycline is needed to induce APOL1 expression. 1 mg/mL tet stock in water was diluted to 250 ng/mL (5×) in cell assay media. 60 μL of cell assay media (no tet control) was dispensed in columns 1 and 24, and 60 μL of 5× tet was dispensed in 384-PP-round bottom plate in columns 2 to 23 with the Multidrop dispenser.
Assay ready plates from the Global Compound Archive were ordered using template 384_APOL1Cell_DR10n2_50 μM_v3. Compounds were dispensed at 200 nL in DMSO. The final top concentration was 10 μM with a 10 point 3-fold dilution in duplicate in the MultiTox assay.
20 μL were transferred from the 5× tet plate to the ARP and mixed, then 5 μL of 5× tet and the compounds were transferred to the cell plate and mixed using the Bravo. The cell plate was placed in the humidified 37° C. 5% CO2 incubator for 24 hours.
The MultiTox-Fluor Multiplex Cytotoxicity Assay was performed in accordance with the manufacturer's protocol. After cells were incubated with tet and compound for 24 hours, 25 μL of 1× MultiTox reagent was added to each well using the Multidrop dispenser; the plates were placed on a plate shaker (600 rpm) for 2 minutes, then centrifuged briefly and placed back in the 37° C. incubator for 30 minutes. […]

APOL1 G1 [2] = target: T1, APOL1 G1; experiment: Trypanosoma brucei brucei Lysis Assay Using APOL1 Recombinant Protein (AlamarBlue viability readout); conditions: for pIC50: IP50 = IC50 for cell proliferation, read-out: Trypanosome Assay IP50; for Emax: read-out: Trypanosome Assay Max Activity (%)
Summary of the method: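 Percent viability comes from AlamarBlue (resazurin→resorufin) fluorescence interpolated on a standard curve of known parasite numbers, with no-APOL1 wells as 100%. Parasites (Lister 427 bloodstream form, 120,000/well, serum-free assay medium) meet 0.05 μg/mL APOL1 (~EC90). Compounds span a 10-point series, 0.1% DMSO final.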

APOL1 = target: T2, APOL1 (Homo sapiens, UniProt O14791); experiment: Multi-Tox Assay (MultiTox-Fluor Multiplex Cytotoxicity Assay in tet-inducible APOL1 T-REx-HEK293 cells; Table 46 does not say which APOL1 variant G0/G1/G2); conditions: APOL1 variant not given; for pIC50: IP50 = IC50 for cell proliferation
T2 sequence (O14791 1-398 S342G/I384M): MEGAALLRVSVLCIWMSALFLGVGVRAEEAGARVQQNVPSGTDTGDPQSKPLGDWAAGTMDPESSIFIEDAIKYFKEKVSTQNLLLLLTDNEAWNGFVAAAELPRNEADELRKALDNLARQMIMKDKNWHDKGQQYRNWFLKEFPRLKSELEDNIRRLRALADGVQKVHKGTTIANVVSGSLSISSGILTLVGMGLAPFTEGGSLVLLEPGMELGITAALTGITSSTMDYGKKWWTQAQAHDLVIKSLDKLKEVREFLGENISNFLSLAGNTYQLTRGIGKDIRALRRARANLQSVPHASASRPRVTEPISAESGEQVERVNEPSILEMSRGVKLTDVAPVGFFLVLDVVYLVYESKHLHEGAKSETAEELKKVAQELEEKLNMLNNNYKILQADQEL

Row | SMILES | pIC50 (APOL1 G1 [1]) | pIC50 (APOL1 G1 [2]; Trypanosome Assay) | pIC50 (APOL1) | other results
1 | C[C@H]1C[C@@]2(C[C@@H](c3cn(CC(C)(C)O)nn3)N1)OCC(F)(F)c1cc(Cl)sc12 [Compound 364] |  |  |  | Emax (APOL1 G1 [1]): 95%
2 | Cn1cc([C@@H]2C[C@]3(C[C@H](C4CC4)N2)OCCc2cc(C(F)(F)F)sc23)nn1 [Compound 383, (2′R,6′S,7S)-2′-cyclopropyl-6′-(1-methyltriazol-4-yl)-2-(trifluoromethyl)spiro[4,5-dihydrothieno[2,3-c]pyran-7,4′-piperidine]] | > 7.30 |  |  | 
3 | C[C@H]1C[C@@]2(C[C@@H](c3cn(CCO)nn3)N1)OCC(F)(F)c1cc(Cl)sc12 [Compound 361] | > 7.30 |  |  | Emax (APOL1 G1 [1]): 98%
4 | C[C@H]1C[C@@]2(C[C@@H](c3cn(C)nn3)N1)OC[C@@H](O)c1sc(C(F)(F)F)cc12 [Compound 390, (2′S,4S,6′S, 7R)-2′-methyl-6′-(1-methyltriazol-4-yl)-2-(trifluoromethyl)spiro[6,7-dihydrothieno[3,2-c]pyran-4,4′-piperidine]-7-ol] | > 7.30 |  |  | 
5 | CC(CO)Cn1cc([C@@H]2C[C@]3(C[C@H](C)N2)OCC(F)(F)c2cc(Cl)sc23)nn1 (stereo partly shown) [Compound 370] |  |  |  | Emax (APOL1 G1 [1]): 99%
6 | Cn1cc([C@@H]2C[C@]3(C[C@H](c4ccccc4)N2)OC[C@@H](O)c2cc(Cl)sc23)nn1 [Compound 387, (2′S,4S,6′R, 7S)-2-chloro-2′-(1-methyltriazol-4-yl)-6′-phenyl-spiro[4,5-dihydrothieno[2,3-c]pyran-7,4′-piperidine]-4-ol] | < 6.30 |  |  | 
7 | C[C@H]1C[C@@]2(C[C@@H](c3cn(C)nn3)N1)OCC(O)(C(F)F)c1cc(Cl)sc12 (single isomer, unassigned) [Compound 185] |  | 6.30 to 7.30 | > 7.30 | Trypanosome Assay Max Activity (%) (APOL1 G1 [2]; Trypanosome Assay): 99.0%; IC90 (APOL1): < 50 nM; Multi-Tox Assay Max Activity (%) (APOL1): 99.5%
8 | Cc1cc([C@@H]2C[C@]3(C[C@H](C)N2)OCCc2cc(Cl)sc23)ccn1 (racemic) [Compound 21, (2S)-2-chloro-2′-methyl-6′-(2-methyl-4-pyridyl)spiro[4,5-dihydrothieno[2,3-c]pyran-7,4′-piperidine]] |  | > 7.30 | > 7.30 | Emax (APOL1 G1 [2]; Trypanosome Assay): 108%
9 | CC1CC2(CC(c3cnn(C)n3)N1)OCCc1cc(Cl)sc12 (stereo not shown) [Compound 38] |  | > 7.30 | > 7.30 | Emax (APOL1 G1 [2]; Trypanosome Assay): 112%
10 | CCc1nc([C@@H]2C[C@]3(C[C@H](C)N2)OCCc2cc(Cl)sc23)c[nH]1 (racemic) [Compound 128] |  | 6.30 to 7.30 | 6.30 to 7.30 | Emax (APOL1 G1 [2]; Trypanosome Assay): 107%; Multi-Tox Assay Max Activity (%) (APOL1): 99.3%
11 | CC1CC2(CC(c3cccnc3)N1)OCCc1cc(Cl)sc12 (racemic) [Compound 20, 2-chloro-2′-methyl-6′-(3-pyridyl)spiro[4,5-dihydrothieno[2,3-c]pyran-7,4′-piperidine]] |  | > 7.30 | > 7.30 | Emax (APOL1 G1 [2]): 116%
